One compound from paper PMC9325671, “Targeting LIPA independent of its lipase activity is a therapeutic strategy in solid tumors via induction of endoplasmic reticulum stress” (Nature Cancer, 2022) can be followed below.

In the assay the target is T1, lysosomal acid lipase (LAL, LIPA) (Homo sapiens, UniProt P38571).
T1 construct: endogenous LAL in SUM-159 cells (CETSA); WT-LIPA reconstituted in LIPA KO cells (pulldown)
T1 sequence (P38571 77-399): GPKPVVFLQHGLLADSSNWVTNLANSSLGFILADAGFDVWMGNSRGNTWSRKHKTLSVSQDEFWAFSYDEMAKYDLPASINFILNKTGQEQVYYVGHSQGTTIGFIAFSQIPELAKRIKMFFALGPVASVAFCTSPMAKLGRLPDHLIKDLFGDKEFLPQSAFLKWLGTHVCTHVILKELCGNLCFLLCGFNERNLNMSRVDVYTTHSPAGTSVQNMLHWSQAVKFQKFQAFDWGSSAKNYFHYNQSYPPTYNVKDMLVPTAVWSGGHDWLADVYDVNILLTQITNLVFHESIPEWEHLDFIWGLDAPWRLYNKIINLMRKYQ
As to the kind of experiment: cellular thermal shift assay ([…] ERX-41) in SUM-159 cells; pulldown from lysates with biotinylated ERX-41. In kind it is cell-based.

As for `CC(C)COc1cc(C(=O)Nc2ccc(C(=O)N[C@H]3CC[C@H](C)CC3)cc2OCC(C)C)ccc1NC(=O)c1ccc([N+](=O)[O-])c(OCCO)c1` [ERX-41], the “cellular thermal shift assay (10 uM ERX-41) in SUM-159 cells; pulldown from lysa” value was “ERX-41 was able to stabilize LAL within the cell and shifted thermal sensitivity, suggesting that ERX-41 binds to LAL”.
